This is an account of results in ChEMBL document CHEMBL1201862, “PubChem BioAssay data set” (2004).

Active and inactive are the calls of the source.

For test [1], the target named is Dual specificity protein phosphatase 3 (Homo sapiens, UniProt P51452). In words: SAR VHR1 Fluorescent Assay for In Vitro dose response studies Set 3. [Related pubchem assays (depositor defined):AID1654, AID1661, AID1878]. It counts as functional.
The subject of test [2] is HEK293. In words: SAR Analysis of small molecule inhibitors of T-cell specific antigen receptor-induced NF-kB activation in a HEK-293T cell line using a luminescence assay - Set 2. [Related pubchem assays (depositor defined):AID435003, AID435012, AID489026]. It counts as functional, cell-based. To be noted: Homo sapiens.
Test [3] concerns HEK293. In words: HEK293T cell viability loss, resazurin readout – resazurin fluorescence, cytotoxicity control for NF-kB activator project, SAR follow-up (AID 493251). The conditions noted are these: Homo sapiens. It counts as functional, cell-based.
In the next test the test system is Jurkat. Kind of test: SAR Analysis of small molecule inhibitors of T-cell specific antigen receptor-induced NF-kB activation in a Jurkat cell line using a luminescence assay - Set 2. [Related pubchem assays (depositor defined):AID435003, AID435012, AID465]. It counts as functional, cell-based. To be noted: Homo sapiens.
For test [4], the target named is T1, Trace amine-associated receptor 1 (Homo sapiens, UniProt Q96RJ0).
T1 sequence (Q96RJ0 whole entry): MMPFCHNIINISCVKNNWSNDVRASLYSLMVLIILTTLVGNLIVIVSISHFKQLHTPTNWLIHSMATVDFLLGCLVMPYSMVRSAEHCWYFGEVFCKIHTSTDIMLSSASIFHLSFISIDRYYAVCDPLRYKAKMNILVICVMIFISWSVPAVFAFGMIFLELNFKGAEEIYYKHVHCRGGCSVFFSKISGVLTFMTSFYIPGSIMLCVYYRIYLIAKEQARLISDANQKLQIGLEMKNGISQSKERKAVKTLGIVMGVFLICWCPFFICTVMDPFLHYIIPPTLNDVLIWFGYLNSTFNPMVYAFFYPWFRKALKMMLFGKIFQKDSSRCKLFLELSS
Kind of test: Fluorescence-based cell-based high throughput dose response assay to identify agonists of the human trace amine associated receptor 1 (TAAR1). It counts as functional.

The subject of a further test is Vero. Kind of test: cells. It counts as functional, cell-based. The conditions noted are these: Chlorocebus sabaeus.
In test [5] the target is T1, Trace amine-associated receptor 1. Kind of test: Counterscreen for agonists of the human trace amine associated receptor 1 (hTAAR1): Fluorescence-based cell-based high throughput dose response assay to identify hTAAR1 agonist that also desensitize TAAR1 receptor response. It counts as functional. Background: A counterscreen serves to expose hits that act by an unwanted route or on another target.

The nature of test [6]: cells. It counts as functional, cell-based.
A short description of test [7]: cells. It counts as functional, cell-based. This is another data set of the same source.

Dual specificity protein phosphatase 3, sequence (P51452 whole entry): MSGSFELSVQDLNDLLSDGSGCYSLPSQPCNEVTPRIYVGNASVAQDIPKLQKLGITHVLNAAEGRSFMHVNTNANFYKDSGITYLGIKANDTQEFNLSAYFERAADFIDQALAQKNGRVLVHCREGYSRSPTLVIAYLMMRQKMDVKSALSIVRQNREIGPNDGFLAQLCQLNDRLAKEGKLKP

As for `COc1ccc(-c2nnc(Nc3nc4c(F)cccc4s3)o2)cc1`, the IC50 in test [1] is 3.71 µM (active).

In the case of `CC(=O)N1CCc2cc(NC(=O)c3ccc([N+](=O)[O-])o3)ccc21`, the IC50 in the test on HEK293 [2] was 50.5 µM (inactive); in the test with HEK293 [3] it was > 80 µM (inactive); in the test with Jurkat, 49.5 µM (inactive).

Regarding `CCCCOc1ccc(C(=O)Nc2ccc(N3CCN(C)CC3)cc2)cc1`, the EC50 in test [4] was 10.2 µM (inactive); in “cells [6]”, > 29.9 µM (inactive). Moreover, the IC50 in the test on Vero was 24.8 µM (active); in test [5], > 29.9 µM (inactive); in the test “cells [7]” it was > 29.9 µM (inactive).

What is called IC50 is the concentration at which inhibition is half-maximal. The term EC50 denotes the midpoint of the concentration-response curve.
